Laboratory results taken from patent publication US20240025906A1 (NEURON23, INC., priority 2022, published 2024).
Like-named read-outs stand apart in the source and are kept apart here.

Tests used:
[1] = target: T1, TYK2 JH2 (Homo sapiens, UniProt P29597); assay: TYK2 JH2 binding assay (KINOMEscan KdELECT competitive binding); conditions: TYK2 JH2 domain
T1 construct: purchased DiscoverX (KINOMEscan KdELECT service); host or cells: E. coli BL21-derived (T7 phage display) or HEK-293
Method in brief: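 Kd values come from qPCR measurement of kinase retained on an immobilized-ligand resin after 1 h room-temperature competition with compound in an 11-point, 3-fold series.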

[2] = test system: JAK1/TYK2 pSTAT5 (Tyr694/699) in THP-1 cell line; assay: IFNa-stimulated JAK1/TYK2 pSTAT5 (Tyr694/699) inhibition cellular assay, AlphaLISA; type: cell-based; conditions: Homo sapiens, THP-1 cells, AlphaLISA (Assay B)
Method in brief: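 An eight-point 6-fold titration of compound (0.04–10000 nM final) is given to THP-1 cells for 1 h before 30 min of IFNa exposure. Phospho-STAT5 is read by AlphaLISA at 615 nm. IC50 values are derived by logistic regression with bottom set to 0 and Hill slope set to −1.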

[3] = KINOMEscan KdELECT (Assay A), read-out: Biochemical TYK2_DiscoverX_JH2_BND_Kd
[4] = IFNa-stimulated, read-out: Cellular_THP1_IFNa-pSTATS_TYK2
[5] = DiscoverX KINOMEscan KdELECT (Assay A), read-out: Biochemical TYK2_DiscoverX_JH2_BND_Kd
[6] = IFNa-stimulated pSTAT5 (Tyr694/699), read-out: Cellular_THP1_IFNa-pSTATS_TYK2
[7] = KINOMEscan KdELECT (Assay A), read-out: Biochemical TYK2_JH2_Kd
[8] = IFNa-stimulated, read-out: Cellular THP1_IFNa-pSTATS_IC50

T1 sequence (P29597 589-875 limits assumed): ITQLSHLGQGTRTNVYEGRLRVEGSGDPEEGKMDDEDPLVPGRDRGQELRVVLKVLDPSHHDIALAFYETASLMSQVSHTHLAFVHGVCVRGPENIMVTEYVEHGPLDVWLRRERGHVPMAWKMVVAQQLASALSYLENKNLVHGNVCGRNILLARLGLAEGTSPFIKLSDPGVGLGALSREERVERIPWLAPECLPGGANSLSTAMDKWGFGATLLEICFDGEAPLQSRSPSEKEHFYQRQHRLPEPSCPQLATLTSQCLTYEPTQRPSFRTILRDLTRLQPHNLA

| Kd [1, 3] [nM] | IC50 [2, 4] [nM] | Kd [1, 5] [nM] | SMILES | further results |
| --- | --- | --- | --- | --- |
| ≤ 100 | > 500 | – | CNc1ncc(C23CC(c4ccncc4)(C2)C3)c2cc(NC(=O)C3CC3)ncc12 [Example 845, N-(8-(methylamino)-5-(3-(pyridin-4-yl)bicyclo[1.1.1]pentan-1-yl)-2,7-naphthyridin-3-yl)cyclopropanecarboxamide] | – |
| ≤ 100 | – | – | CNc1ncc(C#Cc2ccc(-n3c(=O)ccn3C)cn2)c2cc(NC(=O)C3CC3)ncc12 [Example 1001, N-(5-((5-(2-methyl-5-oxo-2,5-dihydro-1H-pyrazol-1-yl)pyridine-2-yl)ethynyl)-8-(methylamino)-2,7-nahphthyridin-3-yl)cyclopropanecarboxamide] | IC50 [2, 6]: ≤ 500 nM |
| ≤ 100 | – | – | CNc1ncc(-c2nc3cc(N4C[C@H](C)O[C@@H](C)C4)ccc3o2)c2cc(NC(=O)[C@H]3C[C@H]3C)ncc12 [Example 1068, (1S,2R)-N-[5-[5-[(2S,6S)-2,6-dimethylmorpholin-4-yl]-1,3-benzoxazol-2-yl]-8-(methylamino)-2,7-naphthyridin-3-yl]-2-methyl-cyclopropanecarboxamide] | IC50 [2, 6]: ≤ 500 nM |
| ≤ 100 | – | – | CNc1ncc(C#Cc2cccc3c2OCCC3)c2cc(NC(=O)C3CC3)ncc12 [Example 1014, N-(5-(chroman-8-ylethynyl)-8-(methylamino)-2,7-naphthyridin-3-yl)cyclopropanecarboxamide] | IC50 [2, 6]: ≤ 500 nM |
| ≤ 100 | ≤ 500 | – | CNc1ncc(-c2ccc(Oc3cccnc3)cc2)c2cc(NC(=O)C3CC3)ncc12 [Example 864, N-(8-(methylamino)-5-(4-(pyridin-3-yloxy)phenyl)-2,7-naphthyridin-3-yl)cyclopropanecarboxamide] | – |
| ≤ 100 | ≤ 500 | – | CNc1ncc(C#Cc2ncc(OC)cc2CO)c2cc(NC(=O)C3CC3)ncc12 [Example 967, N-[5-[2-[3-(hydroxymethyl)-5-methoxy-2-pyridyl]ethynyl]-8-(methylamino)-2,7-naphthyridin-3-yl]cyclopropanecarboxamide] | – |
| ≤ 100 | – | – | CNc1ncc(C#Cc2nc3ccccc3s2)c2cc(NC(=O)C3CC3)ncc12 [Example 1020, N-(5-(benzo[d]thiazol-2-ylethynyl)-8-(methylamino)-2,7-naphthyridin-3-yl)cyclopropanecarboxamide] | IC50 [2, 6]: ≤ 500 nM |
| ≤ 100 | – | – | CNc1ncc(-c2nc3ccc(N4CCO[C@H]([C@@H](C)O)C4)cn3n2)c2cc(NC(=O)C3CC3)ncc12 (single isomer, unassigned) [Example 1045] | IC50 [2, 6]: ≤ 500 nM |
| ≤ 100 | ≤ 500 | – | [2H]C([2H])([2H])Nc1ncc(C#Cc2ccc3nc(C(F)F)n(C)c3c2)c2cc(NC(=O)[C@H]3C[C@H]3C)ncc12 [Example 819, (1S,2R)—N-(5-((2-(difluoromethyl)-1-methyl-1H-benzo[d]imidazol-6-yl)ethynyl)-8-((methyl-d3)amino)-2,7-naphthyridin-3-yl)-2-methylcyclopropane-1-carboxamide] | – |

The next lines start with the molecule.

| SMILES | Kd [1, 3] [nM] | IC50 [2, 4] [nM] | Kd [1, 5] [nM] | further results |
| --- | --- | --- | --- | --- |
| CNc1ncc(C#Cc2ncc(OC)cc2C)c2cc(NC(=O)C3CC3)ncc12 [Example 664, N-(5-((5-methoxy-3-methylpyridin-2-yl)ethynyl)-8-(methylamino)-2,7-naphthyridin-3-yl)cyclopropanecarboxamide] | ≤ 100 | ≤ 500 | – | – |
| CNc1ncc(-c2nc3cc(N4CC(OCCOC)C4)ccc3o2)c2cc(NC(=O)C3CC3)ncc12 [Example 324, N-(5-(5-(3-(2-methoxyethoxy)azetidin-1-yl)benzo[d]oxazol-2-yl)-8-(methylamino)-2,7-naphthyridin-3-yl)cyclopropanecarboxamide] | – | ≤ 500 | ≤ 100 | – |
| CNc1ncc(C#Cc2ncc(OC)cc2F)c2cc(NC(=O)C3CC3)ncc12 [Example 665, N-(5-((3-fluoro-5-methoxypyridin-2-yl)ethynyl)-8-(methylamino)-2,7-naphthyridin-3-yl)cyclopropanecarboxamide] | ≤ 100 | ≤ 500 | – | – |
| CCn1c(C)nc2ccc(C#Cc3cnc(NC)c4cnc(NC(=O)C5CC5)cc34)cc21 [Example 761, N-(5-((1-ethyl-2-methyl-1H-benzo[d]imidazol-6-yl)ethynyl)-8-(methylamino)-2,7-naphthyridin-3-yl)cyclopropanecarboxamide] | ≤ 100 | ≤ 500 | – | – |
| CNc1ncc(-c2nc3cc(N4CCCOCC4)ccc3o2)c2cc(NC(=O)C3CC3)ncc12 [Example 318, N-(5-(5-(1,4-oxazepan-4-yl)benzo[d]oxazol-2-yl)-8-(methylamino)-2,7-naphthyridin-3-yl)cyclopropanecarboxamide] | – | ≤ 500 | ≤ 100 | – |
| CNc1ncc(-c2ccccc2)c2cc(NC(C)C)ncc12 [Example 162, N^6-isopropyl-N^1-methyl-4-phenyl-2,7-naphthyridine-1,6-diamine] | – | – | – | Kd [1, 7]: 100 to 1000 nM; IC50 [2, 8]: > 500 nM |
| [2H]C([2H])([2H])Nc1ncc(-c2nc3ccc(C)cn3n2)c2cc(NC(=O)C3(F)CC3)ncc12 [Example 577, 1-fluoro-N-(8-((methyl-d3)amino)-5-(6-methyl-[1,2,4]triazolo[1,5-a]pyridin-2-yl)-2,7-naphthyridin-3-yl)cyclopropane-1-carboxamide] | – | > 500 | ≤ 100 | – |
| CNc1ncc(-c2nc3cc(OC)ccc3o2)c2cc(NC(=O)[C@@H]3C[C@@H]3CO)ncc12 (single isomer, unassigned) [Example 468] | – | ≤ 500 | ≤ 100 | – |
| CNc1ncc(C#Cc2ccc(P(C)(C)=O)cc2)c2cc(NC(=O)C3CC3)ncc12 [Example 769, N-(5-((4-(dimethylphosphoryl)phenyl)ethynyl)-8-(methylamino)-2,7-naphthyridin-3-yl)cyclopropanecarboxamide] | ≤ 100 | ≤ 500 | – | – |
| CNc1ncc(-c2nc3cc(N4CCO[C@@H](C(C)(F)F)C4)ccc3o2)c2cc(NC(=O)C3CC3)ncc12 (single isomer, unassigned) [Example 332] | – | ≤ 500 | ≤ 100 | – |
| CNc1ncc(-c2nc3cc(OCC#N)ccc3o2)c2cc(NC(=O)C3CC3)ncc12 [Example 338, N-(5-(5-(cyanomethoxy)benzo[d]oxazol-2-yl)-8-(methylamino)-2,7-naphthyridin-3-yl)cyclopropanecarboxamide] | – | ≤ 500 | ≤ 100 | – |
| CNc1ncc(-c2nc3cc(N4CCO[C@H](C)C4)ccc3o2)c2cc(Nc3ccccn3)ncc12 [Example 420, (R)—N^1-methyl-4-(5-(2-methylmorpholino)benzo[d]oxazol-2-yl)-N^6-(pyridin-2-yl)-2,7-naphthyridine-1,6-diamine] | – | ≤ 500 | ≤ 100 | – |
| CNc1ncc(-c2ccc(C)o2)c2cc(NC(=O)C3CC3)ncc12 [Example 143, N-(8-(methylamino)-5-(5-methylfuran-2-yl)-2,7-naphthyridin-3-yl)cyclopropanecarboxamide] | – | – | – | Kd [1, 7]: ≤ 100 nM; IC50 [2, 8]: ≤ 500 nM |
| CNc1ncc(-c2nc3cc(N4C5CCC4COC5)ccc3o2)c2cc(NC(=O)C3CC3)ncc12 [Example 311, N-(5-(5-(3-oxa-8-azabicyclo[3.2.1]octan-8-yl)benzo[d]oxazol-2-y1)-8-(methylamino)-2,7-naphthyridin-3-yl)cyclopropanecarboxamide] | – | ≤ 500 | ≤ 100 | – |
| CNc1ncc(-c2nc3cc(NCCOC)ccc3o2)c2cc(NC(=O)C3CC3)ncc12 [Example 294, N-(5-(5-((2-methoxyethyl)amino)benzo[d]oxazol-2-yl)-8-(methylamino)-2,7-naphthyridin-3-yl)cyclopropanecarboxamide] | – | ≤ 500 | ≤ 100 | – |
| CNc1ncc(C#Cc2ccc(N3CCOCC3)cc2C)c2cc(NC(=O)C3CC3)ncc12 [Example 639, N-(5-((2-methyl-4-morpholinophenyl)ethynyl)-8-(methylamino)-2,7-naphthyridin-3-yl)cyclopropanecarboxamide] | ≤ 100 | ≤ 500 | – | – |
| CCc1ncc(-c2ccccc2)c2cc(NC(=O)C3CC3)ncc12 [Example 96, N-(8-ethyl-5-phenyl-2,7-naphthyridin-3-yl)cyclopropanecarboxamide] | – | – | – | Kd [1, 7]: ≤ 100 nM; IC50 [2, 8]: > 500 nM |
| CNc1ncc(C#Cc2ccc(S(C)(=O)=O)cc2)c2cc(NC(=O)C3CC3)ncc12 [Example 610, N-(8-(methylamino)-5-((4-(methylsulfonyl)phenyl)ethynyl)-2,7-naphthyridin-3-yl)cyclopropanecarboxamide] | ≤ 100 | ≤ 500 | – | – |
| CCC(=O)Nc1cc2c(-c3nc4ccccc4o3)cnc(NC)c2cn1 [Example 428, N-(5-(benzo[d]oxazol-2-yl)-8-(methylamino)-2,7-naphthyridin-3-yl)propionamide] | – | ≤ 500 | ≤ 100 | – |
| CNc1ncc(-c2cccc(-c3ncn(C)n3)c2OC)c2cc(NC(=O)C3CC3)ncc12 [Example 49, N-(5-(2-methoxy-3-(1-methyl-1H-1,2,4-triazol-3-yl)phenyl)-8-(methylamino)-2,7-naphthyridin-3-yl)cyclopropanecarboxamide] | – | – | – | Kd [1, 7]: ≤ 100 nM; IC50 [2, 8]: > 500 nM |
